Measurements: patent publication US9393317B2, “Peptide-conjugated oligonucleotide therapeutic and method of making and using same” (Sloan-Kettering Institute for Cancer Research, priority 2008, dated 2016)

tested on: MMTV-HER2/neu (YD) Id1−/− tumor cells; test: MMTV-HER2/neu (YD) Id1−/− allograft model, osmotic pumps, with and without 17-AAG; type: in vivo, mouse; conditions: Id1-PCAO 7 nmol/d s.c. pumps; F3 and Id1-AO each 20 nmol/d; 17-AAG i.p. 3 consecutive days per week; FIG. 7
Source text: Proc Natl Acad Sci USA 100, 12337-42 (2003)), perhaps due to the requirement of Hsp90 for maintaining Hif1-alpha or HER2/neu stability. Id1-PCAOs were therefore tested in combination with 17-AAG in the MMTV-HER2/neu (YD) Id1-/- allograft model. The Id1-PCAO was delivered in this prolonged experiment via subcutaneously implanted osmotic pumps (7 nmol/d). 17-AAG was given by intraperitoneal injection according to an established protocol, on 3 consecutive days per week after tumor establishment. As controls, saline or the un-conjugated components of the Id1-PCAO (F3-peptide and Id1-AO each at 20 nmol/d) were administered. […] To further control for non-specific effects we repeated the experiment using the same tumor model and added […] which was delivered at the same rate as the Id1-PCAO (7 nmol/d) and the F3-peptide without addition of Id1-AO (20 nmol/d) as control substances. […] The decrease in Id1-positive cells after administration of Id1-PCAO alone was less dramatic than in the intravenous protocol described above. This might be due to the slight decrease in dosage and the changed route of administration (s.c. vs. i.v.). […] Alternatively, animals were implanted s.c. with osmotic pumps (Durect Corp., Cupertino, Calif.) that delivered 7 nmol/d Id1-PCAO (3.5 mg/kg BW) in TBS over a 14 day period. Controls received 20 nmol/d F3-peptide plus 20 nmol/d Id1-AO (in TBS) or TBS. 2×106 MMTV-HER2/neu (YD) Id1-/- tumor cells were injected into the left flank 24 h after implantation of the pumps. After the 14 days treatment period, pumps were replaced using a model with a work period of 7 days. […] Control animals received DMSO:EPL 1:1 i.p at the same schedule. Tumor size was measured using a calliper. Volume was calculated as V=(/6×longest diameter×perpendicular diameter2). Image acquisition and analysis: Epifluorescence, bright field and phase contrast images were acquired using Zeiss Axiostar 200 microscopes. Leica laser confocal microscopes were used for co-localisation studies. For quantification, large fields of the tissue sections were acquired using an automated image acquisition and montaging system (Zeiss Axiostar 200M microscope with MetaMorph Software, Molecular Devices, Sunnyvale, Calif.). […] Three or 4 large field images were used to quantify each section. Stained areas were quantified using MetaMorph or ImageJ software (http://rsb.info.nih.gov/ij/). Images were threshholded and stained area (CD31) was calculated or particles per field were counted (Id1 or Hif1 positive cells). To quantify extent of haemorrhage, H&E whole tumor sections were imaged with a 5× objective and evaluated using the colour threshold function of the Metamorph software.

Row | Compound | tumor growth, agent alone
1 | C=CCNC1=C2C[C@@H](C)C[C@H](OC)[C@H](O)[C@@H](C)/C=C(\C)[C@H](OC(N)=O)[C@@H](OC)/C=C\C=C(/C)C(=O)NC(=CC1=O)C2=O [17-AAG, 17-(allylamino)-17-demethoxygeldanamycin] | delayed tumor growth

same assay, conditions: mouse, in vivo

Row | Compound | Hif1-alpha expression | Id1-positive endothelial cells in the tumor, agent alone | vascular density
2 | C=CCNC1=C2C[C@@H](C)C[C@H](OC)[C@H](O)[C@@H](C)/C=C(\C)[C@H](OC(N)=O)[C@@H](OC)/C=C\C=C(/C)C(=O)NC(=CC1=O)C2=O [17-AAG, 17-(allylamino)-17-demethoxygeldanamycin] | counteracted this response | decrease of Id1-positive endothelial cells in the tumor | decreased vascular density

tested on: 4T1 (ATCC CRL-2539) tumor allograft; test: In vivo phage display panning, breast carcinoma model, tumor cell homing phage; set-up: species or system mouse; conditions: tumors resected 24 h post phage injection, 3-4 rounds of panning
Protocol: (§1) To identify peptide sequences displaying homing potential to specific tumors or to the vasculature of specific tumors, in vivo phage display panning was performed. Utilizing commercially available M13-based phage libraries (PhD-7 Prod# E8100S and PhD-C7C E8120S, New England Biolabs, Ipswich, Mass.) phage were isolated that were enriched after 3-4 rounds of panning in different tumor models. These phage particles display surface peptides that potentially confer homing and cellular uptake capabilities.
Panning was conducted in 4T1 (ATCC CRL-2539) tumor allograft bearing mice. Tumors were resected 24 h post phage injection.

Row | Compound | Frequency of enriched sequence
3 | 15 (KWGSNNL; Breast Carcinoma homing probe) [compound 15] | 4/12
4 | 16 (YSMPAPV; Breast Carcinoma homing probe) [compound 16] | 2/12
5 | 17 (DSTRPHY; Breast Carcinoma homing probe) [compound 17] | 2/12
6 | 18 (KYESAPT; Breast Carcinoma homing probe) [compound 18] | 1/12
7 | 19 (TSMTSYR; Breast Carcinoma homing probe) [compound 19] | 1/12
8 | 20 (EKNLTRP; Breast Carcinoma homing probe) [compound 20] | 1/12
9 | 21 (HTPMALE; Breast Carcinoma homing probe) [compound 21] | 1/12

tested on: tumor endothelium of high-grade malignant glioma; test: Accumulation of FITC-labeled Grp78-GMBS-ASId1 in high-grade malignant glioma mouse model; type: in vivo; conditions: retro-orbital injection, four hours post injection
Source text: In a further specific example, the therapeutic agent combines a Grp78 targeting peptide with an Id1 targeting antisense oligonucleotide. A therapeutic agent of this type was synthesized using the Grp-78 targeting peptide of Seq. ID No. 4, GMBS as the HBL, and Id1 antisense of Seq. ID No. 2, labeled with FITC and injected retro-orbitally into a mouse model with a high-grade malignant glioma. Four hours post injection the mouse was sacrificed, and tissue was processed for imaging.

Row | Compound | accumulation in imaged tissue | blood brain barrier crossing
10 | Grp78-GMBS-ASId1: Grp-78 targeting peptide of Seq. ID No. 4, GMBS as the HBL, Id1 antisense of Seq. ID No. 2, labeled with FITC (chain WIFPWIQL; antisense gcaccagctccttgaggcgugag; GMBS linker, FITC label; GRP78 homing peptide; antisense oligonucleotide targeting ID1.) | accumulate around tumor blood vessels | crossed the blood brain barrier

tested on: 4T1 (ATCC CRL-2539) tumor allograft; test: In vivo phage display panning, breast carcinoma model, tumor vascular homing phage; set-up: species or system mouse; conditions: tumors resected 5-7 h post phage injection, 3-4 rounds of panning
Protocol: as §1
Panning was conducted in 4T1 (ATCC CRL-2539) tumor allograft bearing mice. Tumors were resected 5-7 h post phage injection.

Row | Compound | Frequency of enriched sequence
11 | 22 (GHSKAMY; Breast carcinoma tumor vascular homing probe) [compound 22] | 4/12
12 | 23 (GHGASIS; Breast carcinoma tumor vascular homing probe) [compound 23] | 1/12
13 | 24 (NLLAPAG; Breast carcinoma tumor vascular homing probe) [compound 24] | 1/12
14 | 25 (HDLPAVR; Breast carcinoma tumor vascular homing probe) [compound 25] | 1/12
15 | 26 (AMPLPVP; Breast carcinoma tumor vascular homing probe) [compound 26] | 1/12
16 | 27 (HESTWGP; Breast carcinoma tumor vascular homing probe) [compound 27] | 1/12
17 | 28 (CDPRNPNWC; Breast carcinoma tumor vascular homing probe) [compound 28] | 1/12
18 | 29 (CLPRHDPYC) [compound 29] | 1/12
19 | 30 (CPAGQNAHC) [compound 30] | 1/12

tested on: SVR (ATCC CRL-2280, a murine endothelial cell line) tumor allograft; test: In vivo phage display panning, angiosarcoma model; set-up: species or system mouse; conditions: tumors resected 24 h post phage injection, 3-4 rounds of panning
Protocol: as §1
Panning was conducted in SVR (ATCC CRL-2280, a murine endothelial cell line) tumor allograft bearing mice. Tumors were resected 24 h post phage injection.

Row | Compound | Frequency of enriched sequence
20 | 10 (FPGGYTP; Angiosarcoma homing probe) [compound 10] | 11/15
21 | 11 (MFEPVLP; Angiosarcoma homing probe) [compound 11] | 1/15
22 | 12 (TLSKQST; Angiosarcoma homing probe) [compound 12] | 1/15
23 | 13 (TSLKMQV; Angiosarcoma homing probe) [compound 13] | 1/15
24 | 14 (ERVLMQV; Angiosarcoma homing probe) [compound 14] | 1/15
